Measurements taken from patent US20240118265A1, “MATERIALS AND METHODS TO IMPROVE IN VITRO TOXICITY PREDICTIONS” (priority 2022, published 2024).

test system: RhCE tissues; assay: not given; details: without DM test; cited from earlier work

Row | Compound | EpiOcular prediction versus in vivo
1 | CCCCOc1ccc(OCCCC)cc1 [1,4-dibutoxy benzene] | false negatives
2 | Cc1c(COC(=O)[C@@H]2[C@H](/C=C(\Cl)C(F)(F)F)C2(C)C)cccc1-c1ccccc1 (racemic) [Bifenthrin] | false negatives
3 | c1ccc2c(c1)CCc1ccccc1N2 [Iminodibenzyl] | false negatives
4 | COC(=O)CC#N [Methyl cyanoacetate] | false negatives

test system: cultured epithelium; assay: not given; details: cited from earlier work

Row | Compound | Short Time Exposure (STE) prediction versus in vivo
5 | CCCOCC(C)OCC(C)O (stereo not drawn) [1-(1-methyl-2-propoxyethoxy)propan-2-ol] | false negatives
6 | O=C([O-])c1ccccc1O.[Na+] [Sodium salicylate] | false negatives
7 | CCCCCCCCCCCCCCO [Myristyl alcohol] | false negatives
8 | C/C=C/C=C/C(=O)[O-].[K+] [Potassium sorbate] | false negatives

same assay, conditions: without DM test; cited from earlier work

Row | Compound | Short Time Exposure (STE) prediction versus in vivo
9 | COC(C)=O [Methyl acetate] | false negatives
10 | CCO [Ethanol] | false negatives
11 | CC(C)(O)CCC(C)(C)O [2,5-Dimethyl-2,5-hexanediol] | false negatives
12 | CC(C)O [Isopropanol] | false negatives
13 | COC(=O)CC#N [Methyl cyanoacetate] | false negatives
14 | O=C(Cl)c1c(Cl)cccc1Cl [2,6-Dichlorobenzoyl chloride] | false negatives

test system: isolated chicken eye; assay: not given; details: without DM test; cited from earlier work

Row | Compound | ICE prediction versus in vivo
15 | O=Cc1ccc(C(=O)O)cc1 [4-carboxybenzaldehyde] | false negatives
16 | COC(=O)CC#N [Methyl cyanoacetate] | false negatives

test system: not listed separately; assay: Depth of Migration (DM) test; type: physicochemical; details: not given

Row | Compound | DM Distance Traveled
17 | CCCOCC(C)OCC(C)O (stereo not drawn) [1-(1-methyl-2-propoxyethoxy)propan-2-ol] | 4.5 cm
18 | C=CC(=O)OCCO [Hydroxyethyl acrylate] | 4.5 cm
19 | CC(C)(C)CC(C)(C)c1ccc(O)cc1 [4-(1,1,3,3-Tetramethylbutyl)phenol] | 4.5 cm
20 | O=C([O-])c1ccccc1O.[Na+] [Sodium salicylate] | 4.5 cm
21 | C/C=C/C=C/C(=O)[O-].[K+] [Potassium sorbate] | 4.5 cm

same assay, conditions: 1:100 dilution in DM dye solution, 30 μL, 15° platform, after 30-120 seconds; table value

Row | DM Distance Traveled | Compound
22 | 4.5 cm | C=C1C2CCC(C2)C1(C)C (stereo not drawn) [Camphene]
23 | 4.5 cm | COC(C)=O [Methyl acetate]
24 | 4.5 cm | N[C@@H](CC(=O)O)C(=O)O [L-Aspartic acid]
25 | 4.5 cm | CCO [Ethanol]
26 | 4.5 cm | O=Cc1ccc(C(=O)O)cc1 [4-carboxybenzaldehyde]
27 | 4.5 cm | CCOC(=O)CC(=O)c1cc(F)c(Cl)nc1Cl [Ethyl 2,6-dichloro-5-fluoro-beta-oxo-3-pyridine propionate]
28 | 4.5 cm | CC(C)(O)CCC(C)(C)O [2,5-Dimethyl-2,5-hexanediol]
29 | 4.5 cm | CC(C)O [Isopropanol]
30 | 4.5 cm | COC(=O)CC#N [Methyl cyanoacetate]
31 | 4.5 cm | O=C(Cl)c1c(Cl)cccc1Cl [2,6-Dichlorobenzoyl chloride]

Row | Compound | DM Distance Traveled
32 | CCN(CC)CCCC(C)Nc1c2ccc(Cl)cc2nc2ccc(OC)cc12 (stereo not drawn) [Quinacrine] | 4.5 cm
33 | CCCCOc1ccc(OCCCC)cc1 [1,4-dibutoxy benzene] | 4.5 cm
34 | CC(=O)O[C@H]1NC(=O)[C@@H]1[C@@H](C)O[Si](C)(C)C(C)(C)C [(2R,3R)-3-((R)-1-(tert-Butyldimethylsiloxy)ethyl)-4-oxoazetidin-2-yl acetate] | 4.5 cm
35 | Cc1c(COC(=O)[C@@H]2[C@H](/C=C(\Cl)C(F)(F)F)C2(C)C)cccc1-c1ccccc1 (racemic) [Bifenthrin] | 4.5 cm
36 | c1ccc2c(c1)CCc1ccccc1N2 [Iminodibenzyl] | 4.5 cm
37 | CCCCCCCCCCCCCCO [Myristyl alcohol] | 4.5 cm

test system: eye; assay: not given; details: GHS category; cited from earlier work

Row | Compound | in vivo GHS
38 | COC(C)=O [Methyl acetate] | Cat. 2
39 | CCCCOc1ccc(OCCCC)cc1 [1,4-dibutoxy benzene] | Cat. 2
40 | CCO [Ethanol] | Cat. 2
41 | CC(=O)O[C@H]1NC(=O)[C@@H]1[C@@H](C)O[Si](C)(C)C(C)(C)C [(2R,3R)-3-((R)-1-(tert-Butyldimethylsiloxy)ethyl)-4-oxoazetidin-2-yl acetate] | Cat. 2
42 | O=Cc1ccc(C(=O)O)cc1 [4-carboxybenzaldehyde] | Cat. 2
43 | Cc1c(COC(=O)[C@@H]2[C@H](/C=C(\Cl)C(F)(F)F)C2(C)C)cccc1-c1ccccc1 (racemic) [Bifenthrin] | Cat. 2
44 | CC(C)(C)CC(C)(C)c1ccc(O)cc1 [4-(1,1,3,3-Tetramethylbutyl)phenol] | Cat. 1
45 | CC(C)(O)CCC(C)(C)O [2,5-Dimethyl-2,5-hexanediol] | Cat. 1
46 | CC(C)O [Isopropanol] | Cat. 2
47 | COC(=O)CC#N [Methyl cyanoacetate] | Cat. 2
48 | O=C(Cl)c1c(Cl)cccc1Cl [2,6-Dichlorobenzoyl chloride] | Cat. 2

same assay, conditions: rabbit, in vivo; cited from earlier work

Row | Compound | in vivo GHS
49 | CCCOCC(C)OCC(C)O (stereo not drawn) [1-(1-methyl-2-propoxyethoxy)propan-2-ol] | Cat. 2
50 | CCN(CC)CCCC(C)Nc1c2ccc(Cl)cc2nc2ccc(OC)cc12 (stereo not drawn) [Quinacrine] | Cat. 1
51 | c1ccc2c(c1)CCc1ccccc1N2 [Iminodibenzyl] | Cat. 1
52 | O=C([O-])c1ccccc1O.[Na+] [Sodium salicylate] | Cat. 1
53 | CCOC(=O)CC(=O)c1cc(F)c(Cl)nc1Cl [Ethyl 2,6-dichloro-5-fluoro-beta-oxo-3-pyridine propionate] | Cat. 2
54 | CCCCCCCCCCCCCCO [Myristyl alcohol] | Cat. 2
55 | C/C=C/C=C/C(=O)[O-].[K+] [Potassium sorbate] | Cat. 2

same assay, conditions: reference classification; cited from earlier work

Row | Compound | known ocular irritancy class of the chemical
56 | Triton X-100 (10%) | ocular corrosive

test system: bovine cornea; assay: not given; details: cited from earlier work

Row | Compound | BCOP prediction versus in vivo
57 | CCOC(=O)CC(=O)c1cc(F)c(Cl)nc1Cl [Ethyl 2,6-dichloro-5-fluoro-beta-oxo-3-pyridine propionate] | false negatives

same assay, conditions: without DM test; cited from earlier work

Row | Compound | BCOP prediction versus in vivo
58 | CCN(CC)CCCC(C)Nc1c2ccc(Cl)cc2nc2ccc(OC)cc12 (stereo not drawn) [Quinacrine] | false negatives
59 | CC(=O)O[C@H]1NC(=O)[C@@H]1[C@@H](C)O[Si](C)(C)C(C)(C)C [(2R,3R)-3-((R)-1-(tert-Butyldimethylsiloxy)ethyl)-4-oxoazetidin-2-yl acetate] | false negatives
60 | CC(C)(C)CC(C)(C)c1ccc(O)cc1 [4-(1,1,3,3-Tetramethylbutyl)phenol] | false negatives
